In patent US9783527B2, “Indazole ureas and method of use” (AbbVie Inc., priority 2014, dated 2017) one finds IC50 data, which are given here for 31 compounds.

Sequence of human Nav1.7 (Q15858 whole entry): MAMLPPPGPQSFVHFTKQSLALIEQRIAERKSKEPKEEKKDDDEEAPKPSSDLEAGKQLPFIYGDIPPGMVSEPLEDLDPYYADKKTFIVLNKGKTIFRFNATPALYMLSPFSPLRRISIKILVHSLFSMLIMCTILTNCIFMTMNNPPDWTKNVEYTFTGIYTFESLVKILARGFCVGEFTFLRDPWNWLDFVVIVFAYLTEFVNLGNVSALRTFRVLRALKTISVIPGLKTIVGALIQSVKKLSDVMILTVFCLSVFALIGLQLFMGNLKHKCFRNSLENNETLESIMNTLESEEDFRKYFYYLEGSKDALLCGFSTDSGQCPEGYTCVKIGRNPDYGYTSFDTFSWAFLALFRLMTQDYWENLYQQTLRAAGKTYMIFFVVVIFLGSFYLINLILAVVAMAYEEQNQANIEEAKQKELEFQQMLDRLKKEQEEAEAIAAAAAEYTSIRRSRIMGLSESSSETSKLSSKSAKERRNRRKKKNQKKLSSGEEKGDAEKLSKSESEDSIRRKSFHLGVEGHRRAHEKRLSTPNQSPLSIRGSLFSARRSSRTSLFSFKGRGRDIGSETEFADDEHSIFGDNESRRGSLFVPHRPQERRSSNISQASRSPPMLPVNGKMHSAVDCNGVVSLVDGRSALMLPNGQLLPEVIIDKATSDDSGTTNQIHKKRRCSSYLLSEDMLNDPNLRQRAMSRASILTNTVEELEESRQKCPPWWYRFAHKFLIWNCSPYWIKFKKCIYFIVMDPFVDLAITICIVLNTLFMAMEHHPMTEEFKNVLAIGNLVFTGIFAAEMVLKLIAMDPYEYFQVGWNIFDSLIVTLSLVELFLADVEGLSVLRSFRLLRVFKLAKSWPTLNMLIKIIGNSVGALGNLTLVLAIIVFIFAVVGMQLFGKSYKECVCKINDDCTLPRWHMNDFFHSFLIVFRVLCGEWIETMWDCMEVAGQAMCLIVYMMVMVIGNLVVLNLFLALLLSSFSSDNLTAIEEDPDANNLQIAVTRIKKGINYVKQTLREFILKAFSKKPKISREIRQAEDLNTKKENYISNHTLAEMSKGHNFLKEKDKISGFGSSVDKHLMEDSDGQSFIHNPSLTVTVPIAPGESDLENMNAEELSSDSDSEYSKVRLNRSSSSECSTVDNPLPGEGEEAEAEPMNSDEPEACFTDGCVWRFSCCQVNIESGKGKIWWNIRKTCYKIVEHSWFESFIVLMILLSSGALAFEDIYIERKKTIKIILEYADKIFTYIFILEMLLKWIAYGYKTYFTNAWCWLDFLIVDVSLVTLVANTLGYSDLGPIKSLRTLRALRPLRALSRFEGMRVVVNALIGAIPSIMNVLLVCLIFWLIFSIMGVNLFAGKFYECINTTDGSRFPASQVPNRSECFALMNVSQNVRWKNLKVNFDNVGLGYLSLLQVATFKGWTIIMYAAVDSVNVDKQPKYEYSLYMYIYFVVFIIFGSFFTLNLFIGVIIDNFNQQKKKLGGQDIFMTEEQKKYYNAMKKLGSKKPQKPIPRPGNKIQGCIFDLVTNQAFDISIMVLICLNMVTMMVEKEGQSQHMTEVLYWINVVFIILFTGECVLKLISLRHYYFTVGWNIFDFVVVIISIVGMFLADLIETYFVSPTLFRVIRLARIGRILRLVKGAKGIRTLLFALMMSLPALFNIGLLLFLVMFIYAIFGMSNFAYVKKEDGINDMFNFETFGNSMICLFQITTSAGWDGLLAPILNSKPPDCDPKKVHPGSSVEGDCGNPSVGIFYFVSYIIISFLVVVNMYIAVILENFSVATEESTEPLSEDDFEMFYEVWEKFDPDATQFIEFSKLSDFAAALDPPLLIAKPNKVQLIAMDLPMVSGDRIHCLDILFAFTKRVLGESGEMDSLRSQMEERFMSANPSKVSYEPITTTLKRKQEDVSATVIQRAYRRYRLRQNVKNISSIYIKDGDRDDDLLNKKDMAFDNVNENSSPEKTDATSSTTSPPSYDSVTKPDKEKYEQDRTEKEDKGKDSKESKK

The assay concerns the target human Nav1.7 (Homo sapiens (Human), UniProt Q15858). The experiment in a line: FRET-based membrane potential assay, recombinant human sodium channel Nav1.7. The class given is cell-based. The conditions noted are these: HEK293 cells stably expressing recombinant human Nav1.7; depolarization with veratridine (EC80) + scorpion venom. As to the method: FRET-Based Membrane Potential Assays.
Recombinant, Human Sodium Channel, Nav1.7.
Two days prior to the experiment, frozen HEK293 cells stably expressing recombinant human Nav1.7 were quickly thawed and plated at 25,000 cells/well in growth medium [DMEM (Invitrogen #11965) with 10% HI FBS (Invitrogen #10082), 2 mM glutamine, 100 units/mL penicillin, 0.1 mg/mL streptomycin (PSG, Sigma #G1146), and 500 μg/mL Geneticin (Invitrogen #10131)] in black-walled, clear-bottom 384-well poly-D-lysine-coated assay plates (Greiner Bio-One, Frickenhausen, Germany) and incubated in a humidified 5% CO2 incubator at 37° C. On the day of the assay, medium was removed by aspiration, and cells were washed with assay buffer [HBSS (Invitrogen, Carlsbad, Calif.) containing 20 mM HEPES (Invitrogen, Carlsbad, Calif.)]. After washing, 30 μL assay buffer containing the fluorescent voltage-sensor probe CC2-DMPE (Invitrogen, Carlsbad, Calif.) at 20 μM and 0.01% pluronic F-127 (Invitrogen, Carlsbad, Calif.) was added to the cells. Cells were incubated for 40 minutes at room temperature in the dark. Following the incubation, the cells were washed and 30 μL assay buffer containing 2.5 μM DiSBAC2(3) substrate (Invitrogen, Carlsbad, Calif.) and 0.5 mM VABSC-1 (Invitrogen, Carlsbad, Calif.) was added to the cells. The cells were incubated for 90 minutes at room temperature in the dark. Fluorescence readings were made using a FLIPR®^TETRA (Molecular Devices, Sunnyvale Calif.) equipped with voltage-sensor probe optics. At the start of each experiment the optimal (EC80) concentration of depolarizing agent (veratridine) was determined by testing a dilution curve of assay buffer containing veratridine (Sigma-Aldrich, St. Louis, Mo.) and 1 mg/mL scorpion venom (SVqq, from Leiurus quinquestriatus; Sigma-Aldrich, St. Louis, Mo.). […] Test compounds in the daughter plate were diluted to (˜3×) solutions in assay buffer immediately before assaying. Using the FLIPR®^TETRA, 20 μL of the (3×) compound solutions were first added to the cells, then 20 μL of depolarizing solution (3×EC80 veratridine+SVqq) were added 3 minutes later to activate the channel. Changes in fluorescence were measured at wavelengths of 440-480 nm and 565-625 nm over the course of the experimental run. Membrane depolarization was expressed as a ratio of the maximum F440-480 nm/F565-625 nm reading above average baseline F440-480 nm/F565-625 nm reading. IC50 values were calculated from curve fits of the ratio data using a four-parameter logistic Hill equation (Accelrys Assay Explorer 3.3 Client, Accelrys, San Diego, Calif.) with percent inhibition plotted against compound concentration.
Consider `CS(=O)(=O)N1CCN(c2cccc3c2cnn3-c2ccccc2F)C1=O` [Example 6, 1-[1-(2-fluorophenyl)-1H-indazol-4-yl]-3-(methylsulfonyl)imidazolidin-2-one], for which the IC50 was 1300 nM. The figure for `NC(=O)Cn1ccn(-c2cccc3c2cnn3-c2ccccc2F)c1=O` [Example 9, 2-{3-[1-(2-fluorophenyl)-1H-indazol-4-yl]-2-oxo-2,3-dihydro-1H-imidazol-1-yl}acetamide] is 959 nM; for `O=C1NCCN1c1cccc2c1cnn2-c1ccccc1F` [Example 57, 1-[1-(2-fluorophenyl)-1H-indazol-4-yl]imidazolidin-2-one] it is 9640 nM. For the compound `NS(=O)(=O)CN1CCN(c2cccc3c2cnn3-c2ccccc2F)C1=O` [Example 58, 1-{3-[1-(2-fluorophenyl)-1H-indazol-4-yl]-2-oxoimidazolidin-1-yl}methanesulfonamide], the IC50 worked out at 2290 nM. Take `COCCN1CCN(c2cccc3c2cnn3-c2ccccc2F)C1=O` [Example 59, 1-[1-(2-fluorophenyl)-1H-indazol-4-yl]-3-(2-methoxyethyl)imidazolidin-2-one]: the IC50 came to 1890 nM. The result for `CC(C)(C)C(=O)N1CCN(c2cccc3c2cnn3-c2ccccc2F)C1=O` [Example 60, 1-(2,2-dimethylpropanoyl)-3-[1-(2-fluorophenyl)-1H-indazol-4-yl]imidazolidin-2-one] reads 1990 nM; that for `O=C1CC(C(=O)N2CCN(c3cccc4c3cnn4-c3ccccc3F)C2=O)C1` [Example 61, 1-[1-(2-fluorophenyl)-1H-indazol-4-yl]-3-[(3-oxocyclobutyl)carbonyl]imidazolidin-2-one], 2240 nM. As for `CNS(=O)(=O)N1CCN(c2cccc3c2cnn3-c2ccccc2F)C1=O` [Example 62, 3-[1-(2-fluorophenyl)-1H-indazol-4-yl]-N-methyl-2-oxoimidazolidine-1-sulfonamide], the concentration for half-maximal inhibition (IC50) worked out at 1710 nM. As for `O=C1NCCN1CCN1CCN(c2cccc3c2cnn3-c2ccccc2F)C1=O` [Example 63, 1-[1-(2-fluorophenyl)-1H-indazol-4-yl]-3-[2-(2-oxoimidazolidin-1-yl)ethyl]imidazolidin-2-one], the IC50 was 4120 nM.

For `CC(C)(O)CN1CCN(c2cccc3c2cnn3-c2ccccc2F)C1=O` [Example 64, 1-[1-(2-fluorophenyl)-1H-indazol-4-yl]-3-(2-hydroxy-2-methylpropyl)imidazolidin-2-one], the IC50 turned out to be 9520 nM.

`COC[C@H]1CC[C@H](COC)N1C(=O)CN1CCN(c2cccc3c2cnn3-c2ccccc2F)C1=O` [Example 65, 1-{2-[(2R,5R)-2,5-bis(methoxymethyl)pyrrolidin-1-yl]-2-oxoethyl}-3-[1-(2-fluorophenyl)-1H-indazol-4-yl]imidazolidin-2-one]: the IC50 is 678 nM.

Consider `O=C(CN1CCN(c2cccc3c2cnn3-c2ccccc2F)C1=O)N1CCN2CCCC2C1` (stereo not shown) [Example 66, 1-[1-(2-fluorophenyl)-1H-indazol-4-yl]-3-[2-(hexahydropyrrolo[1,2-c]pyrazin-2(1H)-yl)-2-oxoethyl]imidazolidin-2-one], for which the concentration for half-maximal inhibition (IC50) was 804 nM. Take `CC(C)OC1CN(C(=O)CN2CCN(c3cccc4c3cnn4-c3ccccc3F)C2=O)C1` [Example 67, 1-[1-(2-fluorophenyl)-1H-indazol-4-yl]-3-[2-(3-isopropoxyazetidin-1-yl)-2-oxoethyl]imidazolidin-2-one]: the IC50 was 2430 nM. The figure for `CN(CC1CCOCC1)C(=O)CN1CCN(c2cccc3c2cnn3-c2ccccc2F)C1=O` [Example 68, 2-{3-[1-(2-fluorophenyl)-1H-indazol-4-yl]-2-oxoimidazolidin-1-yl}-N-methyl-N-(tetrahydro-2H-pyran-4-ylmethyl)acetamide] is 3570 nM; for `CC1CN(C(=O)CN2CCN(c3cccc4c3cnn4-c3ccccc3F)C2=O)CC(C)O1` (stereo not shown) [Example 70, 1-[2-(2,6-dimethylmorpholin-4-yl)-2-oxoethyl]-3-[1-(2-fluorophenyl)-1H-indazol-4-yl]imidazolidin-2-one] it is 12200 nM; for `O=C1N(CC(=O)N2CCCC2CN2CCOCC2)CCN1c1cccc2c1cnn2-c1ccccc1F` (stereo not shown) [Example 71, 1-[1-(2-fluorophenyl)-1H-indazol-4-yl]-3-{2-[2-(morpholin-4-ylmethyl)pyrrolidin-1-yl]-2-oxoethyl}imidazolidin-2-one] it is 2340 nM. As for `CN(CCN1CCOCC1)C(=O)CN1CCN(c2cccc3c2cnn3-c2ccccc2F)C1=O` [Example 72, 2-{3-[1-(2-fluorophenyl)-1H-indazol-4-yl]-2-oxoimidazolidin-1-yl}-N-methyl-N-[2-(morpholin-4-yl)ethyl]acetamide], the IC50 was 1800 nM. Take `CCOCCNC(=O)CN1CCN(c2cccc3c2cnn3-c2ccccc2F)C1=O` [Example 74, N-(2-ethoxyethyl)-2-{3-[1-(2-fluorophenyl)-1H-indazol-4-yl]-2-oxoimidazolidin-1-yl}acetamide]: the IC50 is 7540 nM.

With `CC(C)CCC(=O)N1CCN(c2cccc3c2cnn3-c2ccccc2F)C1=O` [Example 76, 1-[1-(2-fluorophenyl)-1H-indazol-4-yl]-3-(4-methylpentanoyl)imidazolidin-2-one], the IC50 came out at 2290 nM. As for `O=C1N(c2cccc3c2cnn3-c2ccccc2F)CCN1S(=O)(=O)C1CCCC1` [Example 77, 1-(cyclopentylsulfonyl)-3-[1-(2-fluorophenyl)-1H-indazol-4-yl]imidazolidin-2-one], the IC50 was 2790 nM.

`O=C1N(c2cccc3c2cnn3-c2ccccc2F)CCN1S(=O)(=O)C1CCCCC1` [Example 78, 1-(cyclohexylsulfonyl)-3-[1-(2-fluorophenyl)-1H-indazol-4-yl]imidazolidin-2-one]: the IC50 worked out at 2940 nM.

As for `O=C1N(c2cccc3c2cnn3-c2ccccc2F)CCN1S(=O)(=O)c1cccs1` [Example 79, 1-[1-(2-fluorophenyl)-1H-indazol-4-yl]-3-(2-thienylsulfonyl)imidazolidin-2-one], the IC50 is 2270 nM. The figure for `CC(C)CS(=O)(=O)N1CCN(c2cccc3c2cnn3-c2ccccc2F)C1=O` [Example 80, 1-[1-(2-fluorophenyl)-1H-indazol-4-yl]-3-(isobutylsulfonyl)imidazolidin-2-one] is 2380 nM. The figure for `CCCS(=O)(=O)N1CCN(c2cccc3c2cnn3-c2ccccc2F)C1=O` [Example 81, 1-[1-(2-fluorophenyl)-1H-indazol-4-yl]-3-(propylsulfonyl)imidazolidin-2-one] is 4080 nM; for `CC(C)S(=O)(=O)N1CCN(c2cccc3c2cnn3-c2ccccc2F)C1=O` [Example 82, 1-[1-(2-fluorophenyl)-1H-indazol-4-yl]-3-(isopropylsulfonyl)imidazolidin-2-one] it is 2460 nM. In the case of `CCS(=O)(=O)N1CCN(c2cccc3c2cnn3-c2ccccc2F)C1=O` [Example 83, 1-(ethylsulfonyl)-3-[1-(2-fluorophenyl)-1H-indazol-4-yl]imidazolidin-2-one], the IC50 turned out to be 20000 nM. `CC(C)(O)[C@H]1CCN(C(=O)CN2CCN(c3cccc4c3cnn4-c3ccccc3F)C2=O)C1` [Example 85, 1-[1-(2-fluorophenyl)-1H-indazol-4-yl]-3-{2-[(3S)-3-(2-hydroxypropan-2-yl)pyrrolidin-1-yl]-2-oxoethyl}imidazolidin-2-one]: the IC50 came out at 12300 nM. The figure for `O=C(CN1CCN(c2cccc3c2cnn3-c2ccccc2F)C1=O)N1CCC(F)(F)C1` [Example 86, 1-[2-(3,3-difluoropyrrolidin-1-yl)-2-oxoethyl]-3-[1-(2-fluorophenyl)-1H-indazol-4-yl]imidazolidin-2-one] is 1960 nM; for `O=C1N(Cc2ccc(C(F)(F)F)cn2)CCN1c1cccc2c1cnn2-c1ccccc1F` [Example 89, 1-[1-(2-fluorophenyl)-1H-indazol-4-yl]-3-{[5-(trifluoromethyl)pyridin-2-yl]methyl}imidazolidin-2-one] it is 10600 nM; for `C[C@H]1CCN(C(=O)CN2CCN(c3cccc4c3cnn4-c3ccccc3F)C2=O)C1` [Example 90, 1-[1-(2-fluorophenyl)-1H-indazol-4-yl]-3-{2-[(3S)-3-methylpyrrolidin-1-yl]-2-oxoethyl}imidazolidin-2-one] it is 1720 nM. In the case of `O=C(CN1CCN(c2cccc3c2cnn3-c2ccccc2F)C1=O)N1CC(F)(F)C1` [Example 91, 1-[2-(3,3-difluoroazetidin-1-yl)-2-oxoethyl]-3-[1-(2-fluorophenyl)-1H-indazol-4-yl]imidazolidin-2-one], the IC50 was 1740 nM.
